Reference: patent publication US7777000B2, “Anti-viral activity of cathelicidin peptides” (priority 2003, dated 2010)
Values joined by “and” are separate entries in the source; they are usually repeats but may differ in a detail not shown here. Equal entries are not always repeated. “Also recorded” adds a separate entry of the source. Where no end group is shown, it is not given here.

Tests used:
vaccinia virus [1] = assay type: cell-based, vaccinia virus (Wyeth strain)
E. coli ML35p = experiment: Minimum bactericidal concentration / antimicrobial activity against E. coli ML35p; assay type: cell-based; conditions: for Minimum Bactericidal Concentration: mean of three independent experiments
vaccinia virions (IMV) = system: vaccinia virions (IMV); design: species or system vaccinia virus (Wyeth strain); conditions: for alteration of virion structure: 25 μM
vaccinia virus [2] = assay type: cell-based, vaccinia virus (Wyeth strain); remark: listed apart in the source

For HNP-1, the “inhibition of vaccinia virus replication (plaque-forming units)” value (“inhibition … (plaque-forming units)” for short) (vaccinia virus [1]) was “did not inhibit virus replication; also recorded: did not inhibit viral replication”, the “inhibition of vaccinia virus replication at concentrations as high as 50 μM” value (vaccinia virus [1]) was “did not inhibit vaccinia virus replication” and the “antimicrobial activity against E. coli ML35p” value (shortened to “antimicrobial activity”) (E. coli ML35p) was “active against E. coli”. The “Minimum Bactericidal Concentration” value (E. coli ML35p; listed as HNP) was 8.42 µM and 8.42 ± 0.43 µM, the “effect on the structure of the IMV (electron microscopy)” value (vaccinia virions (IMV)) was “did not have an effect on virion structure” and the “alteration of virion structure” value (vaccinia virions (IMV)) was “*25 μM HNP-1 and control peptides did not alter virion structure”.
For “GLLRKGGEKIGEKLKKIGQKIKNFFQKLVPQPEQ (GLLRKGGEKIGEKLKKIGQKIKNFFQKLVPQPEQ) [CRAMP]”, the “amount of viral mRNA in the tissue culture cells” value (vaccinia virus [2]) was “decreased in proportion to the concentration”, the “effective antiviral concentration relative to that required for killing of S. aureus” value (vaccinia virus [1]) was “at least one log lower” and the “inhibition … (plaque-forming units)” value (vaccinia virus [1]) was “concentration-dependent inhibition; also recorded: able to kill vaccinia virus”. For the same compound, the “lowest concentration with significant reduction in viral replication” value (vaccinia virus [1]) was 25 µM and the “antimicrobial activity” value (E. coli ML35p) was “within reported parameters”.
With GLNGPDIYKGUYQFKSVEFD [Peptide 8044] the “inhibition … (plaque-forming units)” value (vaccinia virus [1]) was “did not inhibit virus replication; also recorded: no antiviral activity”, the “antimicrobial activity” value (E. coli ML35p) was “no antimicrobial activity; also recorded: did not exhibit antimicrobial activity; also recorded: ^aControl peptide 8044 did not possess antimicrobial activity against ML35p” and the “effect on the structure of the IMV (electron microscopy)” value (vaccinia virions (IMV)) was “did not have an effect on virion structure”. For the same compound, the “alteration of virion structure” value (vaccinia virions (IMV)) was “*25 μM HNP-1 and control peptides did not alter virion structure”.
With “HBD-1 (DHYNCVSSGGQCLYSACPIFTKIQGTCYRGKAKCCK; ends and bridges not checked; cysteine pairing not given here; UniProt P60022 33-68, looked up)” the “inhibition … (plaque-forming units)” value (vaccinia virus [1]) was “did not inhibit viral replication”, the “inhibition of vaccinia virus replication at concentrations as high as 50 μM” value (vaccinia virus [1]) was “did not inhibit vaccinia virus replication” and the “Minimum Bactericidal Concentration” value (E. coli ML35p) was 16.02 µM and 16.03 ± 1.20 µM.
In the case of `CC[C@H](C)[C@H](NC(=O)[C@H](CCCCN)NC(=O)[C@H](CCC(=O)O)NC(=O)[C@H](CCCCN)NC(=O)[C@H](CO)NC(=O)[C@H](CCCCN)NC(=O)[C@H](CCCNC(=N)N)NC(=O)[C@H](Cc1ccccc1)NC(=O)[C@H](Cc1ccccc1)NC(=O)[C@H](CC(=O)O)NC(=O)CNC(=O)[C@H](CC(C)C)NC(=O)[C@@H](N)CC(C)C)C(=O)NCC(=O)N[C@@H](CCCCN)C(=O)N[C@@H](CCC(=O)O)C(=O)N[C@@H](Cc1ccccc1)C(=O)N[C@@H](CCCCN)C(=O)N[C@@H](CCCNC(=N)N)C(=O)N[C@H](C(=O)N[C@H](C(=O)N[C@@H](CCC(N)=O)C(=O)N[C@@H](CCCNC(=N)N)C(=O)N[C@H](C(=O)N[C@@H](CCCCN)C(=O)N[C@@H](CC(=O)O)C(=O)N[C@@H](Cc1ccccc1)C(=O)N[C@@H](CC(C)C)C(=O)N[C@@H](CCCNC(=N)N)C(=O)N[C@@H](CC(N)=O)C(=O)N[C@@H](CC(C)C)C(=O)N[C@H](C(=O)N1CCC[C@H]1C(=O)N[C@@H](CCCNC(=N)N)C(=O)N[C@H](C(=O)N[C@@H](CCC(=O)O)C(=O)N[C@@H](CO)C(=O)O)[C@@H](C)O)C(C)C)[C@@H](C)CC)C(C)C)[C@@H](C)CC` [LL-37, LLGDFFRKSK EKIGKEFKR1 VQRIKDFLRN LVPRTES], the “amount of viral mRNA in the tissue culture cells” value (vaccinia virus [2]) is reported as “decreased in proportion to the concentration”, the “contact time with vaccinia required to detect antiviral activity” value (vaccinia virus [1]) is reported as “At least one hour” and the “effective antiviral concentration relative to that required for killing of S. aureus” value (vaccinia virus [1]) is reported as “at least one log lower”. The “lowest concentration with significant reduction in viral replication” value (vaccinia virus [1]) was 25 µM, the “antimicrobial activity” value (E. coli ML35p) was “within reported parameters” and the “Altered virions (%)” value (vaccinia virions (IMV)) was 67% and 90% and 95%. The Altered virions/virion number (vaccinia virions (IMV)) was 19/28 and 27/30 and 39/41.
